Holding throughout (test): Competitive isoTOP-ABPP, cell lysates
What all share (type): binding

Assay [1] has as its target SAMHD1 C522 (Q9Y3Z3) (Homo sapiens, UniProt Q9Y3Z3).
Assay [2] deals with SMARCC2 C145 (Q8TAQ2) (Homo sapiens, UniProt Q8TAQ2). The following applies: for R value (DMSO/fragment) / isoTOP-ABPP ratio Q8TAQ2_C145: 500 μM.
Assay [3] addresses T1, PDIA6 C190 (Q15084) (Homo sapiens, UniProt Q15084).
T1 sequence (Q15084 20-440): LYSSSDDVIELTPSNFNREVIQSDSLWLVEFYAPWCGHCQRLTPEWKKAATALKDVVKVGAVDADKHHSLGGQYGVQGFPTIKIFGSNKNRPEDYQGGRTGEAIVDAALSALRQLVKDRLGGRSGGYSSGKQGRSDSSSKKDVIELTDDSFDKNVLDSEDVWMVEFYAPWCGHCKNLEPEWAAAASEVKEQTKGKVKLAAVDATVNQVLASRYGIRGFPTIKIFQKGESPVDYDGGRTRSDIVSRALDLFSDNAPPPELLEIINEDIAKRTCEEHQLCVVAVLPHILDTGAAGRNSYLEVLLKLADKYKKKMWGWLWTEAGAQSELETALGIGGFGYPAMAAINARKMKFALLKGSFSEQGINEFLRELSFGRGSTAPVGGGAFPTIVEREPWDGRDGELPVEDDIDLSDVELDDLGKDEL

Assay [4] addresses GSTP1 C48 (P09211) (Homo sapiens, UniProt P09211). The following applies: for R value (DMSO/fragment) / isoTOP-ABPP ratio, P09211_C48: 500 μM.
For assay [5], the target named is XPO1 C34 (O14980) (Homo sapiens, UniProt O14980). The following applies: for R value (DMSO/fragment) / isoTOP-ABPP ratio, O14980_C34: 500 μM.
For assay [6], the target named is T2, MGMT C150 (P16455) (Homo sapiens, UniProt P16455).
T2 sequence (P16455 1-207): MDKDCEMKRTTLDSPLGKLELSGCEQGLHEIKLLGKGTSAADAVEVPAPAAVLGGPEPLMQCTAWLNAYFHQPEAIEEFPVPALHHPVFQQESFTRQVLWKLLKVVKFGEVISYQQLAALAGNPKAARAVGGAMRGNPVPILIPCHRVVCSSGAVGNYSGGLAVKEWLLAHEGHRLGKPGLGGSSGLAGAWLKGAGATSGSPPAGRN

Assay [7] concerns the target XPO1 C528 (O14980) (Homo sapiens, UniProt O14980). Particulars: for R value (DMSO/fragment) / isoTOP-ABPP ratio O14980_C528: 500 μM; for isoTOP-ABPP ratio O14980_C528: 231.
For assay [8], the target named is UBE2L3 C86 (P68036) (Homo sapiens, UniProt P68036).
The target in assay [9] is GNB2L1 C182 (P63244) (Homo sapiens, UniProt P63244). The following applies: for R value (DMSO/fragment) / isoTOP-ABPP ratio, P63244_C182: 500 μM.
In assay [10] the target is DCUN1D1 C115 (Q96GG9) (Homo sapiens, UniProt Q96GG9).
Assay [11] has as its target STAT3 C259 (P40763) (Homo sapiens, UniProt P40763).
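Wherever isoTOP-ABPP reactivity profile ratio, P09211 C48 is given: Heavy/light ratio DMSO over fragment-treated so higher means more cysteine engagement.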
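Wherever isoTOP-ABPP reactivity profile ratio, Q15084 C190 is given: Heavy/light ratio DMSO over fragment-treated so higher means more cysteine engagement.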

As to `O=C(CCl)NC1C(O)OC(CO)C(O)C1O` (mixture of isomers) [compound 44], the “isoTOP-ABPP reactivity profile ratio, Q9Y3Z3_C522” value in [1] (500 μm, in-vitro_ramos_231) stood at 0.8. Also, the “isoTOP-ABPP reactivity profile ratio, Q8TAQ2_C145” value in [2] (500 μm, in-vitro_ramos_231) is 1.0. The “isoTOP-ABPP reactivity profile ratio, Q15084_C190” value in assay [3] (500 μm, in-vitro_ramos_231) was 1.0. Moreover, the “isoTOP-ABPP reactivity profile ratio, P09211_C48” value in [4] (500 μm, in-vitro_ramos_231) was 0.9. Further, the “isoTOP-ABPP reactivity profile ratio, O14980_C34” value in assay [5] (500 μm, in-vitro_ramos_231) was determined as 0.8.

Regarding `COc1ccc2c(c1)CCCN2C(=O)CCl` [compound 2], the “R value (DMSO/fragment)” value in [6] (500 μM, invitro, ramos) was 20.0; in assay [7] (in vitro, MDA-MB-231), 4.9; in assay [7] (invitro, ramos), 3.1; in assay [1] (500 μM, invitro, ramos) it was 4.0; in assay [2] (in vitro, MDA-MB-231), 8.5; in [2] (invitro, ramos), 14.0. Besides, the “R value (DMSO/fragment)” value in assay [8] (500 μM, in vitro, MDA-MB-231) is given as 2.8; in [8] (500 μM, invitro, ramos), 2.5; in assay [3] (500 μM, invitro, ramos), 15.4; in assay [9] (in vitro, MDA-MB-231) it was 1.2; in [9] (invitro, ramos) it was 1.2; in [4] (in vitro, MDA-MB-231), 3.1. Moreover, the “R value (DMSO/fragment)” value is 1.6 in assay [4] (invitro, ramos); 20.0 in [10] (500 μM, invitro, ramos); 2.8 in [5] (in vitro, MDA-MB-231); 4.6 in [5] (invitro, ramos).

`C=CC(=O)N(c1ccccc1)c1ccc(Br)cc1` [compound 5]: the “isoTOP-ABPP ratio, P16455_C150” value in assay [6] (500 μM, invitro, ramos) came out at 9.6. The “isoTOP-ABPP ratio O14980_C528” value in assay [7] (invitro) stood at 20.0. Also, the “isoTOP-ABPP ratio, Q9Y3Z3_C522” value in assay [1] (500 μM, invitro, ramos) was determined as 5.4. Besides, the “isoTOP-ABPP ratio Q8TAQ2_C145” value in assay [2] (invitro, ramos) was determined as 2.8. Besides, the “isoTOP-ABPP ratio, P68036_C86” value in assay [8] (500 μM, invitro, ramos) is on record as 4.8. Further, the “isoTOP-ABPP ratio, Q15084_C190” value in assay [3] (500 μM, invitro, ramos) stood at 1.7. Further, the “isoTOP-ABPP ratio, P63244_C182” value in [9] (invitro, 231) was 1.5; in assay [9] (invitro, ramos), 1.4. Further, the “isoTOP-ABPP ratio, P09211_C48” value in assay [4] (invitro, 231) stood at 2.2; in [4] (invitro, ramos), 2.4. In addition, the “isoTOP-ABPP ratio, O14980_C34” value in [5] (invitro, 231) worked out at 1.1; in [5] (invitro, ramos), 1.2.

With `O=C(CCl)NC(=O)NC12CC3CC(CC(C3)C1)C2` [compound 12], the “isoTOP-ABPP ratio, P16455_C150” value in [6] (500 μM, invitro, ramos) was 20.0. For the same compound, the “isoTOP-ABPP ratio O14980_C528” value in assay [7] (invitro) came to 1.1. The “isoTOP-ABPP ratio Q8TAQ2_C145” value was 2.8 in assay [2] (invitro, 231) and 1.6 in [2] (invitro, ramos). Also, in assay [3] (500 μM, invitro, ramos), the “isoTOP-ABPP ratio, Q15084_C190” value is recorded as 20.0. The “isoTOP-ABPP ratio, P63244_C182” value in assay [9] (invitro, 231) was 0.9; in assay [9] (invitro, ramos), 0.8. Further, the “isoTOP-ABPP ratio, P09211_C48” value in assay [4] (invitro, 231) is listed as 2.9; in assay [4] (invitro, ramos), 1.1. In addition, in [10] (500 μM, invitro, ramos), the “isoTOP-ABPP ratio, Q96GG9_C115” value was 0.6. In addition, the “isoTOP-ABPP ratio, O14980_C34” value in assay [5] (invitro, 231) came to 1.2; in assay [5] (invitro, ramos), 0.7.

Turning to `N#C/C(=C\c1cc(C(F)(F)F)cc(C(F)(F)F)c1)C(N)=O` [compound 23], the “isoTOP-ABPP ratio (reactivity profile), P16455_C150” value in assay [6] (500 μm in-vitro ramos) stood at 1.0. For the same compound, the “isoTOP-ABPP ratio (reactivity profile), P40763_C259” value in assay [11] (500 μm in-vitro ramos) is on record as 0.8; in [11] (500 μm in-vitro ramos_231) it was 1.1. Further, in assay [7] (500 μm in-vitro ramos), the “isoTOP-ABPP ratio (reactivity profile), O14980_C528” value is 2.9. In [2] (500 μm in-vitro ramos_231), the “isoTOP-ABPP ratio (reactivity profile), Q8TAQ2_C145” value was 1.3. Moreover, the “isoTOP-ABPP ratio (reactivity profile), P68036_C86” value in assay [8] (500 μm in-vitro ramos) is reported as 13.2; in assay [8] (500 μm in-vitro ramos_231), 7.4. Besides, the entries for the “isoTOP-ABPP ratio (reactivity profile), Q15084_C190” value in assay [3] (500 μm in-vitro ramos) and in assay [3] (500 μm in-vitro ramos_231) were 1.1 and 0.8, respectively. The “isoTOP-ABPP ratio (reactivity profile), P63244_C182” value in [9] (500 μm in-vitro ramos_231) was determined as 4.6. The “isoTOP-ABPP ratio (reactivity profile), P09211_C48” value is 0.9 in assay [4] (500 μm in-vitro ramos) and 0.8 in assay [4] (500 μm in-vitro ramos_231). In addition, the “isoTOP-ABPP ratio (reactivity profile), Q96GG9_C115” value in assay [10] (500 μm in-vitro ramos) is listed as 20.0. In addition, the “isoTOP-ABPP ratio (reactivity profile), O14980_C34” value in assay [5] (500 μm in-vitro ramos) is reported as 5.3; in assay [5] (500 μm in-vitro ramos_231) it was 3.4.

For the origin of these results see US10670605B2, “Cysteine reactive probes and uses thereof” (The Scripps Research Institute, priority 2015, dated 2020).
